Legend:
[1] = tested on: male Sprague/Dawley (SD) rats; experiment: Cardiac hypertrophy induced by fluprostenol in vivo: body and organ weights; design: species or system rat
Source text: This pharmacological model tests the ability of IFN-γ to inhibit cardiac hypertrophy induced in rats (e.g. male Wistar or Sprague-Dawley) by subcutaneous injection of fluprostenol (an agonist analog of PGF2α). It is known that rats with pathologic cardiac hypertrophy induced by myocardial infarction have chronically elevated levels of extractable PGF2α in their myocardium. Lai et al, Am. J. Physiol. (Heart Circ. Physiol.) 271:H2197–H2208 (1996). Accordingly, factors that can inhibit the effects of fluprostenol on myocardial growth in vivo are potentially useful for treating cardiac hypertrophy. The effects of IFN-γ on cardiac hypertrophy are determined by measuring the weight of heart, ventricles, and left ventricle (normalized by body weight) relative to fluprostenol-treated rats not receiving IFN-γ. A detailed description of this assay is provided in the examples.
Animals All experimental procedures conformed to the guiding principles of the American Physiology Society, and were approved by Genentech's Institutional Animal Care and Use Committee. The animals used in this study were male Sprague/Dawley (SD) rats (8 weeks of age, Charles River Breeding Laboratories, Inc.). The animals were acclimated to the facility for at least one week before experiments, fed a pelleted rat chow and water ad libitum, and housed in a light and temperature controlled room.
Administration of fluprostenol and/or IFN-γ Rats received subcutaneous injection of fluprostenol (Cayman Chemical, Ann Arbor, Mich.) at 0.15 mg/kg, recombinant mouse IFN-γ (Genentech, Inc., South San Francisco, Calif.) at 0.08 mg/kg, combination of fluprostenol and IFN-γ, or saline vehicle, twice a day for 14 days. In the IFN-γ and fluprostenol+IFN-γ groups, animals were pretreated with IFN-γ for one day. Body weight was measured before and after treatment. A previous study has shown that the dose of fluprostenol used here is the lowest dose which produces a significant cardiac hypertrophy in rats. Lai et al., supra.
Measurement of organ weights Under anesthesia with ketamine/xylazine, the heart, kidney, and spleen were removed, dissected and weighed. The left ventricle was stored at […] for evaluation of gene expression.
Statistical analyisis Results are expressed as mean±SEM. One way analysis of variance (ANOVA) was performed to assess differences in parameters between groups. Significant differences were then subjected to post hoc analysis using Newman-Keuls method; P<0.05 was considered significant.

[2] = tested on: male Sprague/Dawley (SD) rats; experiment: Hemodynamic assessment (MAP) in rats treated with fluprostenol and/or IFN-γ; assay type: in vivo, rat; conditions: conscious rats, 14 days of treatment (FIG. 5)
Method: Hemodynamic assessment Thirteen days after treatment, rats were anesthetized with intraperitoreal injection of ketamine 80 mg/kg (Aveco Co., Inc., Fort Dodge, Iowa) and xylazine 10 mg/kg (Rugby Laboratories, Inc., Rockville Center, N.Y.). A catheter (PE-10 fused with PE 50) filled with heparin-saline solution (50 U/ml) was implanted into the abdominal aorta, via the right femoral artery, for measurement of mean arterial pressure (MAP) and heart rate (HR). The catheter was exteriorized and fixed at the back of the neck.
One day after catheterization, the arterial catheter was connected to a Model CP 10 pressure transducer (Century Technology Company, Inglewood, Calif., USA) that was coupled to a Grass Model 7 polygraph (Grass Instruments, Quincy, Mass., USA). MAP and HR were measured simultaneously in conscious, unrestrained rats.

[3] = tested on: left ventricle of male Sprague/Dawley (SD) rats; experiment: Cardiac gene expression (real-time RT-PCR) in rats treated with fluprostenol and/or IFN-γ; assay type: in vivo, rat; conditions: normalized to GAPDH, FIG. 6
Source text: FIGS. 6A–6D Bargraphs showing the effect of fluprostenol (FLUP) and IFN-γ on: A Skeletal actin (SKA); B Sarcoplasmic reticulum calcium ATPase (SRCA); C Collagen I (COL I); D Atrial natriuretic factor (ANF) expression. Expression levels are normalized to glyceraldehyde-3-phosphate dehydrogenase (GAPDH) message. VEH is vehicle. There were 7 animals per group and the data are presented as the mean±SEM. P<0.05 vs VEH group.
RNA preparation Total RNA was isolated using RNeasy Maxi Columns (Qïägen) according to the manufacturer's instructions.
RT-PCR Real-time RT-PCR (TaqMan) technology was used to compare the gene expression between the various treatment groups. An oligonucleotide probe containing a fluorescent reporter dye, […], at the 3′-end was designed to hybridize to the amplicon defined by two PCR primers. A 3′-blocking phosphate prevents extension of the probe. The reporter dye is released from the probe by the 5′ exonuclease activity of Taq polymerase during the extension phase of PCR reaction. […] The threshold cycle number (Ct), defined as the point where the reporter fluorescence reaches a value greater than 10 times the standard deviation of the baseline, is […] to the amount of amplicon produced from the sample. Since the fluorescence is detected during the exponential phase of the amplification, none of the reaction components are limiting. In each experiment, a control is analyzed that lacks the RNA template to monitor for contamination, and another control is included where the RT step is omitted to eliminate amplification of possible contaminating DNA as the source of the signal. Reactions are optimized to give the greatest fluorescence signal and smallest Ct by titration of magnesium and primer concentrations, and the product is run on an agarose gel to verify the presence of a single band at the predicted molecular weight. […]
Quantitation of the TaqMan results was performed as described by Heid et al., Genome Res. 6:986–994 (1996), with modifications. […]

[4] = tested on: male Sprague/Dawley (SD) rats; conditions: s.c. twice a day; previous study, Lai et al.; cited from earlier work
[5] = tested on: adult rat cardiac myocytes; experiment: Inhibition of PGF2α-induced spreading response of adult myocytes; assay type: cell-based
Method: Myocytes were pre-incubated with saline vehicle or IFN-γ (500 U/ml) on day of isolation. A second addition of vehicle or IFN-γ was performed 24h after isolation, along with the addition of either vehicle or PGF2α (10^−7 M). After an additional 72 hr incubation, cells were fixed in glutaraldehyde, stained with eosin Y and viewed by fluorescence microscopy. A, B, C Cardiac myocytes after 4 days in culture: control, PGF2α, and PGF2α+IFN-γ, respectively. D, E, F Histographs showing maximum breadth of rod shaped cardiac myocytes versus percent frequency of breadth occurrence. The maximum breadth of rod-shaped cells was determined by fluorescence microscopy and imaging software. At least 200 rod shaped cells from a single experiment were examined per group.
Myocytes were pre-incubated with saline vehicle or IFN-γ on day of isolation. A second amount of IFN-γ was added 24 hr after isolation, along with the addition of either vehicle or PGF2α (10^−7 M). After an additional 72 hr incubation, cells were fixed in glutaraldehyde, stained with eosin Y and viewed under fluorescence. Quantitation of myocyte morphology: A control, B PGF2α, C PGF2α+IFN-γ (25 U/ml), D PGF2α+IFN-γ (100 U/ml), E PGF2α+IFN-γ (500 U/ml). Histographs showing maximum breadth of rod shaped cardiac myocytes versus percent frequency of breadth occurrence. The maximum breadth of rod-shaped cells was determined by fluorescence microscopy and imaging software. At least 200 rod shaped cells from a single experiment were examined per group.
In this assay, ventricular myocytes are isolated from a single (male Sprague-Dawley) rat, essentially following a modification of the procedure described in detail by Piper et al., “Adult ventricular rat heart muscle cells.” In: Cell Culture Techniques in Heart and Vessel Research, H. M. Piper, ed., Berlin: Spinger-Verlag, 1990, pp. 36–60. This procedure permits the isolation of adult ventricular myocytes and the long-term culture of these cells in the rod-shaped phenotype. […] Piper et al., supra; Lai et al., Am J. Physiol. 1996; 271 (Heart Circ. Phvsiol. 40):H2197–H2208. The inhibition of myocyte spreading induced by PGF2α, or PGF2α analogs, (e.g. fluprostenol) and phenylephrine by various potential inhibitors of cardiac hypertrophy is then tested. A detailed protocol is described in the examples that follow.
Adult myocyte cultures The procedure used for the isolation of ventricular myocytes from adult rats was a modification of a procedure described by Piper et al., supra, and is detailed in Lai et al., supra. For each myocyte preparation, one male Sprague-Dawley rat weighing about 250 g was anesthetized with pentobarbital sodium, and the heart was removed. Extraneous tissue was trimmed from the heart, and it was mounted onto a Langendorff system that was temperature controlled at 37° C. The heart was perfused with about 40 ml of Krebs buffer (110 mM NaCl, 2.6 mM KCl, 1.2 mM KH2PO4, 1.2 mM MgSO4.7H2O, 25 mM NaHCO3 and 11 mM glucose). A solution containing 30 mg of collagenase and 12.5 μl of 100 mM CaCl2 in 50 ml of Krebs buffer was then recirculated through the heart for 30 minutes. The heart was removed from the Langendorff apparatus, and the atria and connective tissues were removed. The ventricles were cut into 2 mm cubes with dissecting scissors, and further digested in a fresh collagenase solution (30 mg collagenase and 400 mg BSA dissolved in Krebs buffer with 12.5 μl of 100 mM CaCl2) for five minutes at 37° C. During the digestion, the tissue suspension was gently band shaken one time per minute. After the digestion, the supernatant was removed and saved, and the remaining tissue was further digested in fresh collagenase solution for an additional five minutes.

[6] = s.c. twice a day for 14 days, fluprostenol 0.15 mg/kg, IFN-γ 0.08 mg/kg, mean ± SEM

O=C(O)CCC/C=C\C[C@@H]1[C@@H](/C=C/[C@@H](O)COc2cccc(C(F)(F)F)c2)[C@H](O)C[C@@H]1O (racemic) [fluprostenol, reference compound]
Ratio of heart, ventricular, and left ventricular weights to body weight (FIG. 4) ([1]; 14 days, fluprostenol and IFN-γ alone vs vehicle, fluprostenol+IFN-γ vs fluprostenol group): significant increase
BWO, basal levels of body weight ([1]; before treatment, mean ± SEM): 292.3 ± 2.2 g
BW, body weight post treatment [1, 6]: 381.1 ± 4.4 g
HW, heart weight [1, 6]: 1.000 ± .018 g
KW, kidney weight [1, 6]: 1.397 ± .038 g
KW/BW, kidney weight to body weight [1, 6]: 3.632 ± .076 g/kg
LVW, left ventricular weight [1, 6]: .740 ± .013 g
SW, spleen weight [1, 6]: .880 ± .048 g
SW/BW, spleen weight to body weight [1, 6]: 2.309 ± .130 g/kg
VW, ventricular weight [1, 6]: .957 ± .017 g
ΔBW, BW-BWO [1, 6]: 91.9 ± 4.0 g
Mean arterial pressure (MAP) compared to vehicle [2]: significant decline
Abundance of mRNA for α-skeletal actin, collagen I, and natriuretic factor in the heart vs vehicle [3]: increase in the abundance of mRNA
mRNA for sarcoplasmic reticulum calcium ATPase in the heart vs vehicle [3]: significantly reduced
Lowest dose which produces a significant cardiac hypertrophy in rats [4]: 0.15 mg/kg

IFN-α
Ability of other cytokines to inhibit PGF2α induced myocyte spreading [5]: could not inhibit the spreading response

IL-1β: other cytokine tested for inhibition of the spreading response
Ability of other cytokines to inhibit PGF2α induced myocyte spreading [5]: could not inhibit the spreading response

IL-6: other cytokine tested for inhibition of the spreading response
Ability of other cytokines to inhibit PGF2α induced myocyte spreading [5]: could not inhibit the spreading response

TNF-α
Ability of other cytokines to inhibit PGF2α induced myocyte spreading [5]: could not inhibit the spreading response

prostaglandin F2α [PGF2α]
Spreading response of adult myocytes (maximum cell breadth) vs control cells ([5]; 0.1 μM, P<0.001): induced a significant change in the maximum cell breadth

B1: IL-1α: other cytokine tested for inhibition of the spreading response (protein, UniProt P01583 113-271, looked up)
Interleukin-1 alpha: SAPFSFLSNVKYNFMRIIKYEFILNDALNQSIIRANDQYLTAAALHNLDEAVKFDMGAYKSSKDDAKITVILRISKTQLYVTAQDEDQPVLLKEMPEIPKTITGSETNLLFFWETHGTKNYFTSVAHPNLFIATKQDYWVCLAGGPPSITDFQILENQA
Ability of other cytokines to inhibit PGF2α induced myocyte spreading [5]: could not inhibit the spreading response
